Like-named read-outs stand apart in the source and are kept apart here.
How the values were obtained:
[1] = test system: ex vivo expanded CTCs from PC patients and LNCaP and C4-2B cells from mouse bone marrow, 3-D spheroids; assay: Viability/apoptosis of PC CTCs and bone marrow-derived LNCaP and C4-2B grown as 3-D spheroids; type: cell-based, human
Experimental: Immortalized PC cell lines (PC3, LNCaP, C4-2, C4-2B, 22Rv1) and 3-D spheroid growth of mouse bone marrow-derived LNCaP and C4-2B and ex vivo expanded CTCs from patients were used. […] Induction of apoptosis was assessed by caspase 3/7 luminescent assay. Growth inhibitory effects were compared between 2-D and 3-D. Senescent luciferase-tagged LNCaP and C4-2B cells from mouse bone marrow regained growth potential when propagated in vitro as 3D spheroids. RPMI medium supplemented with 10% FBS and 1% penicillin/streptomycin was used to grow CTCs in vitro.

Caki-1 cells = assay: Apoptosis by caspase 3/7 luminescent assay and western blot in Caki-1 cells; type: cell-based, human; conditions: 24 hours of drug exposure, 8, 16, and 32 μM
Experimental: 10,000-15,000 cells/well are seeded in 96 white wall well plates in 100 microliter medium/per well for 24 h. […] 100 microliters of Caspase-Glo 3/7 assay is added and luminescence is then read. […] 5,000 cells/well are seeded in 96 white wall well plates in 100 microliter medium/per well for 24 h. […] 100 microliters of Caspase-Glo 3/7 assay is added and luminescence is then read.
(§1) Apoptosis was assessed by caspase 3/7 luminescent assay. Cleavage of apoptosis substrates was determined by western blotting. […] Formalin-fixed tumor, liver and kidney sections were stained with H&E and kidney sections were scored semiquantitativey.

mouse kidneys [2] = assay: Kidney histopathology in RCC tumor-bearing mice (H&E, semiquantitative score); conditions: i.p. 3 times a week for 4 weeks
Experimental: as §1

[3] = test system: Namalwa and Raji cell lines; assay: Apoptosis by caspase 3/7 luminescent assay and western blot in BL cell lines; type: cell-based, human; conditions: 24 hours of drug exposure; 8, 16, 32 μM
Experimental: Namalwa cells are cultured in RPMI 1640, 10% fetal bovine serum, 1% PenStrep, and placed in a humidified atmosphere containing 5% CO2 at 37° C. 10,000-15,000 cells/well are seeded in 96 white wall well plates in 100 microliter medium/per well for 24 h. […] 100 microliters of Caspase-Glo 3/7 assay is added and luminescence is then read. Caki-1 cells are cultured in RPMI 1640, 10% fetal bovine serum, 1% PenStrep, and placed in a humidified atmosphere containing 5% CO2 at 37° C. 5,000 cells/well are seeded in 96 white wall well plates in 100 microliter medium/per well for 24 h. […] 100 microliters of Caspase-Glo 3/7 assay is added and luminescence is then read.

[4] = test system: ovarian tumor cells OV90 and OVCA433; conditions: in vitro
mouse kidneys [5] = assay: Kidney histopathology, AKI-associated tubular injury score, Namalwa-bearing mice; conditions: i.p. 3 times a week for 4 weeks
Experimental: FIG. 27 depicts in accordance with various embodiments of the invention, formalin-fixed kidney sections are stained with hematoxylin and esosin and scored using a semiquantitative scale designed to assess AKI-associated tubular injury (tubular epithelial cell loss, necrosis, tubular epithelial simplification, intratubular debris, and casts).
(§2) Induction of apoptosis was assessed using a caspase 3/7 luminescent assay. Cleavage of apoptosis substrates and inhibition of c-myc was determined by western blotting, with images quantified by ImageJ after normalization with GAPDH. […] Formalin-fixed tumor and kidney sections were stained with hematoxylin and esosin and kidney sections scored using a semiquantitative scale designed to assess AKI-associated tubular injury (tubular epithelial cell loss, necrosis, tubular epithelial simplification, intratubular debris, and casts).

[6] = test system: Namalwa cell line-derived xenografts; assay: NIR-dye-cisplatin uptake in Namalwa xenografts vs organs (NIRF microscopy, IVIS); conditions: in vivo
Source text: FIG. 28 depicts in accordance with various embodiments of the invention, B-cell lymphoma cell line (Namalwa) subcutaneus tumor xenografts in NCR-NU mice were extracted after the mice were sacrificed. NIR-dye-cisplatin uptake in tumors were imaged by a near-infrared fluorescence (NIRF) microscopy and IVIS Lumina XR Imaging System.

[7] = test system: B-cell lymphoma cell lines Namalwa, Raji, CA46, Ramos, Daudi; assay: Growth and viability of B-cell Burkitt's lymphoma cell lines, MTT, 72 h; type: cell-based, human; conditions: B-cell lymphoma cell lines, 72 h
Experimental: 5,000 cells/well renal cancer cells and 10,000 cells/well lymphoma cells are seeded in 96 well plates in 100 microliter medium/per well for 24 h. […] Renal cancer cells are fixed with 3.7% paraformaldehyde for 15 minutes and are stained with Crystal violet solution (0.5% in 25% methanol) for 30 minutes. After rinsing with water cell layers are dried and decolorized with Sorenson citrate with shaking for 20 minutes. […] Lymphoma cell growth was evaluated using MTT and cells are incubated for 4 hours.
as §2

Renca tumors = conditions: equimolar doses i.p. 3 times a week
Experimental: (§3) Tumor size is measured using a formula (length×width^2)/2.
as §1

ACHN tumors = conditions: equimolar doses i.p. 3 times a week
Experimental: as §3, §1

Namalwa tumors = assay: Namalwa xenograft growth in mice; type: in vivo, mouse; conditions: equimolar doses i.p. 3 times a week

**Q.** Which results are given for CC1(C)C(/C=C/C2=C(Cl)C(=C/C=C3/N(CCCCCC(=O)[O][Pt]([NH2])([NH2])([OH])([Cl])[Cl])c4ccccc4C3(C)C)/CCC2)=[N+](CCCCS(=O)(=O)[O-])c2ccccc21 [NIR dye-cisplatin, DZ-1-cisplatin]?
**A.** sensitivity of cells grown as 3-D spheroids [1]: extremely sensitive; induction of apoptosis (caspase 3/7, apoptosis related markers) (Caki-1 cells): induced apoptosis; induction of apoptosis (caspase 3/7, apoptosis related markers) (Caki-1 cells; listed as dye-cisplatin): induces apoptosis; kidney toxicity (histopathology) (mouse kidneys [2]): preserved the integrity and normal morphology of mouse kidneys; induction of apoptosis (caspase 3/7; caspase 9, caspase 3 and PARP) [3]: induces apoptosis; sensitivity of cell growth relative to unconjugated drug [4]: more sensitive; kidney toxicity (histopathology) (mouse kidneys [5]): preserves the integrity and normal morphology of mouse kidneys; accumulation in cell line-derived xenografts relative to mouse kidneys and lungs [6]: 7-15 times; antitumor effect (in words) [7]: even more potent antitumor effect; tumor growth inhibition (Renca tumors): tumor growth inhibition and apoptotic nuclear lobulation/fragmentation; tumor growth inhibition (Renca tumors; listed as dye-cisplatin): more effective than cisplatin; tumor growth inhibition (ACHN tumors): tumor growth inhibition and apoptotic nuclear lobulation/fragmentation; tumor growth inhibition (ACHN tumors; listed as dye-cisplatin): more effective than cisplatin; tumor growth inhibition (Namalwa tumors): more effective than cisplatin

Source: patent US20190269801A1 (CEDARS-SINAI MEDICAL CENTER, priority 2016, published 2019)
